{"source": "patent US7919620B2", "about": "“Agent for suppressing blood pressure elevation” (Coral Biotech Kabushiki Kaisha, priority 2005, dated 2011)", "assay_type_in_all_cases": "in vivo, rat", "key": {"[1]": {"tested_on": "spontaneously hypertensive rats (SHRs)", "assay": "Animal Experiment 1 (Example 1): systolic pressure of SHRs given sea water- or Si-added feed", "conditions": "for Systolic pressure of SHRs: mean ± SD", "from_the_text": "In the following examples, spontaneously hypertensive rats (SHRs) were used as experimental animals. The antihypertensive effect of deep sea water was examined by comparison with tap water and surface sea water. […] The samples of the sea water used in the examples were collected by the Deep Seawater Laboratory of Okinawa at a point 3 kilometers off the coast of Kumejima island at depths of 612 m (deep sea water) and 15 m (surface sea water).\n(§1) Seven-week-old male SHRs were divided into 5 groups of 6 to 7 animals. Following 1 week of acclimatization, each group was allowed to feed freely on semi-solid feed for 7 to 8 weeks. The feed given was prepared by adding 40 wt % moisture to powdered feed. To ensure that each SHR would develop hypertension, 1 wt % salt was added to the feed. The animals were allowed to freely drink tap water. Over the course of the test period, each animal was weighed and the feed consumption was measured. Blood pressure was taken from the tail vein every four days between 4 PM and 6 PM. After a 12-hour fasting period, the animals were sacrificed. Serum, liver, and kidney were weighed and subjected to analyses.\n(§2) The sea water added was NaCl-removed deep sea water (DW) or NaCl-removed surface sea water (SW) prepared by dialyzation through an electrodialyzer (Asahi Kasei) until the conductivity of monovalent ions was decreased to 10 mS/cm.\n(§3) The Si concentration in the semi-solid feed containing 40% moisture is defined as the amount of Si contained in 1 kg of the feed."}, "[2]": {"assay": "Animal Experiment 1 (Example 1): NaCl, water and feed consumption and body weight of SHRs", "protocol": "as §1, §2, §3"}, "[3]": {"tested_on": "spontaneously hypertensive rats (SHRs)", "assay": "Animal Experiment 2 (Example 2): systolic pressure of SHRs given sea water- or Si-added feed", "conditions": "for Systolic pressure of SHRs: mean ± SD", "protocol": "(§4) Twenty-five 7-week-old male SHRs were divided into 5 groups of 5 animals. Four times as much Si as used in Example 1 was added to the feed given to the rats. Otherwise, the animals were tested under the same conditions as in Example 1. Two types of sea water were added to the powder feed: sea water subjected to NaCl-removing treatment by electrical dialysis and ion-exchanged water. The semi-solid feed containing 1.4 wt % NaCl and 40% moisture was prepared by adding the sea water to powdered feed."}, "[4]": {"assay": "Animal Experiment 2 (Example 2): NaCl, water and feed consumption and body weight of SHRs", "protocol": "as §4"}}, "note": "Marks after values point to notes of the source that are not given here."}
{"smiles": "O.O.O.O.O.O.O.O.O.O=[Si]([O-])[O-].[Na+].[Na+]", "note": "[Si, sodium metasilicate nonahydrate]", "values": [{"measurement": "Systolic pressure of SHRs", "setting": "[1]; age 7 W", "value": "151.4 ± 9.8", "unit": "mmHg"}, {"measurement": "Systolic pressure of SHRs", "setting": "[1]; age 8 W", "value": "163.6 ± 7.7", "unit": "mmHg"}, {"measurement": "Systolic pressure of SHRs", "setting": "[1]; age 9 W", "value": "165.1 ± 9.2", "unit": "mmHg"}, {"measurement": "Systolic pressure of SHRs", "setting": "[1]; age 10 W", "value": "173.7 ± 12.2", "unit": "mmHg"}, {"measurement": "Systolic pressure of SHRs", "setting": "[1]; age 11 W", "value": "184.4 ± 11.2", "unit": "mmHg"}, {"measurement": "Systolic pressure of SHRs", "setting": "[1]; age 12 W", "value": "188.4 ± 10.7", "unit": "mmHg"}, {"measurement": "Systolic pressure of SHRs", "setting": "[1]; age 13 W", "value": "194.1 ± 10.4", "unit": "mmHg"}, {"measurement": "Systolic pressure of SHRs", "setting": "[1]; age 14 W", "value": "193.8 ± 11.3*^1 mmHg"}, {"measurement": "Difference in magnitude of blood pressure elevation vs control group", "setting": "[1]; age 14 weeks (week 6 of treatment), p<0.05", "value": "about 15 mmHg"}, {"measurement": "Systolic pressure of SHRs", "setting": "[1]; age 15 W", "value": "195.2 ± 9.8*^2 mmHg"}, {"measurement": "Antihypertensive effect (blood pressure suppression vs control)", "setting": "[1]; end of test period (15 weeks old)", "value": "approximately 23 mmHg"}, {"measurement": "Body weight", "setting": "[2]; 8 weeks", "value": "185.0 ± 12.2", "unit": "g"}, {"measurement": "Body weight, % of Control", "setting": "[2]; 8 weeks", "value": "[98.2%]"}, {"measurement": "Body weight", "setting": "[2]; 15 weeks", "value": "287.7 ± 14.7", "unit": "g"}, {"measurement": "Body weight, % of Control", "setting": "[2]; 15 weeks", "value": "[95.7%]"}, {"measurement": "Systolic pressure of SHRs", "setting": "[3]; age 7 W", "value": "157 ± 8", "unit": "mmHg"}, {"measurement": "Systolic pressure of SHRs", "setting": "[3]; age 8 W", "value": "166 ± 12", "unit": "mmHg"}, {"measurement": "Systolic pressure of SHRs", "setting": "[3]; age 9 W", "value": "168 ± 4", "unit": "mmHg"}, {"measurement": "Systolic pressure of SHRs", "setting": "[3]; age 10 W", "value": "167 ± 7", "unit": "mmHg"}, {"measurement": "Systolic pressure of SHRs", "setting": "[3]; age 11 W", "value": "172 ± 7", "unit": "mmHg"}, {"measurement": "Systolic pressure of SHRs", "setting": "[3]; age 12 W", "value": "179 ± 4", "unit": "mmHg"}, {"measurement": "Systolic pressure of SHRs", "setting": "[3]; age 13 W", "value": "179 ± 1*^1 mmHg"}, {"measurement": "Systolic pressure of SHRs", "setting": "[3]; age 14 W", "value": "181 ± 3*^1 mmHg"}, {"measurement": "Antihypertensive effect (difference in systolic pressure from the control)", "setting": "[3]; end of test period (14 weeks old), p<0.05", "value": "approximately 10 mmHg"}, {"measurement": "Body weight", "setting": "[4]; 8 week", "value": "200.3 ± 15.3", "unit": "g"}, {"measurement": "Body weight, % of Control", "setting": "[4]; 8 week", "value": "[97.6%]"}, {"measurement": "Body weight", "setting": "[4]; 14 week", "value": "303.4 ± 22.6", "unit": "g"}, {"measurement": "Body weight, % of Control", "setting": "[4]; 14 week", "value": "[102.4%]"}]}
